Data as given in US7253158B2, “Sulfonamides” (Hoffmann-La Roche Inc., priority 2004, dated 2007).

Target: T1, γ-secretase (Homo sapiens, UniProt P49768)
T1 construct: uses a HEK293 membrane fraction as a source of γ-secretase; endogenous in cells; host or cells: HEK293 (microsomal membrane fraction, solubilised in 0.25% CHAPSO)
Experiment: in vitro γ-secretase assay (HEK293 membrane fraction, recombinant APP substrate, Abeta ELISA)
Type: biochemical
Conditions: γ-secretase inhibition
From the text: Description of γ-Secretase Assay
The activity of test compounds can be evaluated in assays which measure the proteolytic cleavage of suitable substrates by γ-secretase activity. These can be cellular assays where e.g., a substrate of the γ-secretase is fused in its cytoplasmic domain to a transcription factor. Cells are transfected with this fusion gene and a reporter gene, e.g., firefly luciferase, which expression is enhanced by the transcription factor. Cleavage of the fused substrate by γ-secretase will lead to expression of the reporter gene which can be monitored in appropriate assays. The γ-secretase activity can also be determined in cell-free in vitro asays where e.g., a cell lysate containing the γ-secretase complex is incubated with a suitable APP-derived substrate which is cleaved to the Abeta peptides. The amount of produced peptides can be determined with specific ELISA assays. Cell lines of neuronal origin secrete Abeta peptides which can be measured with the specific ELISA assay. Treatment with compounds which inhibit γ-secretase leads to a reduction of secreted Abeta thus providing a measure of inhibition.
The in vitro assay of γ-secretase activity uses a HEK293 membrane fraction as a source of γ-secretase and a recombinant APP substrate. Latter consist of the C-terminal 100 amino acids of human APP fused to a 6× Histidin tail for purification which is expressed in E. coli in a regulatable expression vector, e.g. pEt15. This recombinant protein corresponds to the truncated APP fragment which results after […] of the extracellular domain and which constitutes the γ-secretase substrate. […] Hek293 cells are mechanically disrupted and the microsomal fraction is isolated by differential centrifugation.

IC50 [nM]	SMILES
210	CC(C)(CC(=O)O)c1ccc(CN([C@@H]2CCCCNC2=O)S(=O)(=O)c2ccc(Cl)cc2)cc1 [Example 218, 3-(4-{[(4-Chloro-benzenesulfonyl)-((R)-2-oxo-azepan-3-yl)-amino]-methyl}-phenyl)-3-methyl-butyric acid]
20	O=C(O)c1ccc(CN(C2CC(C(F)(F)F)CCNC2=O)S(=O)(=O)c2ccc(Cl)cc2)c(F)c1 (stereo not drawn) [Example 199, 4-{[(4-Chloro-benzenesulfonyl)-(2-oxo-5-trifluoromethyl-azepan-3-yl)-amino]-methyl}-3-fluoro-benzoic acid]
230	CC(C)(Cc1ccc(CN([C@@H]2CCCCNC2=O)S(=O)(=O)c2ccc(Cl)cc2)cc1)C(=O)O [Example 219, 3-(4-{[(4-Chloro-benzenesulfonyl)-((R)-2-oxo-azepan-3-yl)-amino]-methyl}-phenyl)-2,2-dimethyl-propionic acid]
190	COC(=O)c1ccc(CN(C2CCCCNC2=O)S(=O)(=O)c2ccc(Cl)cc2)c(F)c1 (racemic) [Example 203, rac-4-{[(4-Chloro-benzenesulfonyl)-(2-oxo-azepan-3-yl)-amino]-methyl}-3-fluoro-benzoic acid methyl ester]

Same assay, conditions: γ-secretase inhibition, table head prints none

SMILES	IC50 [nM]
COc1ccc(CN([C@@H]2CCCCNC2=O)S(=O)(=O)c2ccc(C(F)(F)F)cc2)c(F)c1F [Example 166, N-(2,3-Difluoro-4-methoxy-benzyl)-N-((R)-2-oxo-azepan-3-yl)-4-trifluoromethyl-benzenesulfonamide]	230
CC1(C)CCNC(=O)C(N(Cc2ccc(C(=O)NCc3ccccc3)cc2)S(=O)(=O)c2ccc(Cl)cc2)C1 (racemic) [Example 147, rac-N-Benzyl-4-{[(4-chloro-benzenesulfonyl)-(5,5-dimethyl-2-oxo-azepan-3-yl)-amino]-methyl}-benzamide]	20
CN(C)NC(=O)c1ccc(CN([C@@H]2CC(C)(C)CCNC2=O)S(=O)(=O)c2ccc(Cl)cc2)c(F)c1 [Example 189, 4-Chloro-N-[4-(N′,N′-dimethyl-hydrazinocarbonyl)-2-fluoro-benzyl]-N-((R)-5,5-dimethyl-2-oxo-azepan-3-yl)-benzenesulfonamide]	20
O=C(O)CCc1ccc(CN(C2CC(C(F)(F)F)CCNC2=O)S(=O)(=O)c2ccc(Cl)cc2)cc1 (stereo not drawn) [Example 194, 3-(4-{[(4-Chloro-benzenesulfonyl)-(2-oxo-5-trifluoromethyl-azepan-3-yl)-amino]-methyl}-phenyl)-propionic acid]	130
COc1ccc(CN(C2CC(C(C)C)CCNC2=O)S(=O)(=O)c2ccc(Cl)cc2)c(F)c1 (stereo not drawn) [Example 116, 4-Chloro-N-(2-fluoro-4-methoxy-benzyl)-N-(5-isopropyl-2-oxo-azepan-3-yl)-benzenesulfonamide]	140
O=C1NCCCC[C@H]1N(Cc1ccc(-c2ncn[nH]2)cc1F)S(=O)(=O)c1ccc(Cl)cc1 [Example 56, 4-Chloro-N-[2-fluoro-4-(2H-[1,2,4]triazol-3-yl)-benzyl]-N-((R)-2-oxo-azepan-3-yl)-benzenesulfonamide]	80
CC1(C)CCNC(=O)C(N(Cc2ccc(-c3nn[nH]n3)cc2)S(=O)(=O)c2ccc(Cl)cc2)C1 (racemic) [Example 150, rac-4-Chloro-N-(5,5-dimethyl-2-oxo-azepan-3-yl)-N-[4-(2H-tetrazol-5-yl)-benzyl]-benzenesulfonamide]	100
Cc1nnc(-c2ccc(CN(C3CC(C(C)C)CCNC3=O)S(=O)(=O)c3ccc(Cl)cc3)cc2)o1 (stereo not drawn) [Example 180, 4-Chloro-N-(5-isopropyl-2-oxo-azepan-3-yl)-N-[4-(5-methyl-[1,3,4]oxadiazol-2-yl)-benzyl]-benzenesulfonamide]	140
CC1(C)CCNC(=O)[C@H](N(Cc2ccc(CO)cc2F)S(=O)(=O)c2ccc(Cl)cc2)C1 [Example 193, 4-Chloro-N-((R)-5,5-dimethyl-2-oxo-azepan-3-yl)-N-(2-fluoro-4-hydroxymethyl-benzyl)-benzenesulfonamide]	20
CC1(C)CCNC(=O)[C@H](N(Cc2ccc(-c3ccno3)cc2)S(=O)(=O)c2ccc(Cl)cc2)C1 [Example 191, 4-Chloro-N-((R)-5,5-dimethyl-2-oxo-azepan-3-yl)-N-(4-isoxazol-5-yl-benzyl)-benzenesulfonamide]	60

The next lines start with the values.

IC50 [nM]	SMILES
70	CC1(C)CCNC(=O)C(N(Cc2ccc(C(=O)O)cc2)S(=O)(=O)c2ccc(Cl)cc2)C1 (stereo not drawn) [Example 139, 4-{[(4-Chloro-benzenesulfonyl)-(5,5-dimethyl-2-oxo-azepan-3-yl)-amino]-methyl}-benzoic acid]
190	CN(C)NC(=O)c1ccc(CN(C2CC(C(F)(F)F)CCNC2=O)S(=O)(=O)c2ccc(Cl)cc2)cc1 (stereo not drawn) [Example 196, 4-Chloro-N-[4-(N′,N′-dimethyl-hydrazinocarbonyl)-benzyl]-N-(2-oxo-5-trifluoromethyl-azepan-3-yl)-benzenesulfonamide]
20	COC(=O)CNC(=O)c1ccc(CN(C2CC(C)(C)CCNC2=O)S(=O)(=O)c2ccc(Cl)cc2)cc1 (racemic) [Example 148, rac-(4-{[(4-Chloro-benzenesulfonyl)-(5,5-dimethyl-2-oxo-azepan-3-yl)-amino]-methyl}-benzoylamino)-acetic acid methyl ester]
190	O=C(NC1CC1)c1ccc(CN(C2CCCCNC2=O)S(=O)(=O)c2ccc(Cl)cc2)cc1 (racemic) [Example 75, rac-4-{[(4-Chloro-benzenesulfonyl)-(2-oxo-azepan-3-yl)-amino]-methyl}-N-cyclopropyl-benzamide]
200	COC(=O)c1ccc(C(C)N([C@@H]2CCCCNC2=O)S(=O)(=O)c2ccc(Cl)cc2)cc1 (stereo partly drawn) [Example 41, 4-{1-[(4-Chloro-benzenesulfonyl)-((R)-2-oxo-azepan-3-yl)-amino]-ethyl}-benzoic acid methyl ester]
260	CC(C)C1CCNC(=O)C(N(Cc2ccc(C(N)=O)cc2)S(=O)(=O)c2ccc(Cl)cc2)C1 (stereo not drawn) [Example 4, 4-{[(4-Chloro-benzenesulfonyl)-(5-isopropyl-2-oxo-azepan-3-yl)-amino]-methyl}-benzamide]
150	NC(=O)c1ccc(CN([C@@H]2CCCCNC2=O)S(=O)(=O)c2ccc(Cl)cc2)cc1 [Example 2, 4-{[(4-Chloro-benzenesulfonyl)-((R)-2-oxo-azepan-3-yl)-amino]-methyl}-benzamide]
260	O=C(NC1CC1)c1ccc(CN([C@@H]2CCCCNC2=O)S(=O)(=O)c2ccc(C(F)(F)F)cc2)cc1 [Example 106, N-Cyclopropyl-4-{[((R)-2-oxo-azepan-3-yl)-(4-trifluoromethyl-benzenesulfonyl)-amino]-methyl}-benzamide]
230	O=C1NCCCCC1N(Cc1ccc(C(F)F)cc1)S(=O)(=O)c1ccc(Cl)cc1 (racemic) [Example 172, Rac-4-Chloro-N-(4-difluoromethyl-benzyl)-N-(2-oxo-azepan-3-yl)-benzenesulfonamide]
290	O=C(NC1CC1)c1ccc(CN([C@@H]2CCCCNC2=O)S(=O)(=O)c2ccc(Br)cc2)cc1 [Example 107, N-Cyclopropyl-4-{[((R)-2-oxo-azepan-3-yl)-(4-bromo-benzenesulfonyl)-amino]-methyl}-benzamide]
30	O=C(O)c1ccc(CN(C2CC(C(F)(F)F)CCNC2=O)S(=O)(=O)c2ccc(Cl)cc2)cc1 (stereo not drawn) [Example 195, 4-{[(4-Chloro-benzenesulfonyl)-(2-oxo-5-trifluoromethyl-azepan-3-yl)-amino]-methyl}-benzoic acid]
10	COC(=O)c1ccc(CN(C2CC(C)(C)CCNC2=O)S(=O)(=O)c2ccc(Cl)cc2)cc1 (racemic) [Example 138, Rac-4-{[(4-Chloro-benzenesulfonyl)-(5,5-dimethyl-2-oxo-azepan-3-yl)-amino]-methyl}-benzoic acid methyl ester]
280	CC1(C)CCNC(=O)C(N(Cc2ccc(C(=O)NC3CC3)cc2)S(=O)(=O)c2ccc(Cl)cc2)C1 (stereo not drawn) [Example 109, 4-{[(4-Chloro-benzenesulfonyl)-(5,5-dimethyl-2-oxo-azepan-3-yl)-amino]-methyl}-N-cyclopropyl-benzamide]
